Assay results as given in patent US6906035B2, “Antimicrobial cationic peptides” (priority 1995, dated 2005).
Where “and” joins values, the source holds several entries; their conditions need not be identical. Equal values may be shown once. Read-outs that look alike come from different tables or passages of the source. Ends that are not written are not given here.

Columns and labels:
[1] = test system: X. maltophila; test: organism not typed; conditions: agent alone
Description: (§1) FICs are performed by checkerboard titrations of peptides in one dimension of a microtiter plate, and of antibiotics in the other dimension, for example. The FIC is calculated by looking at the impact of one antibiotic on the MIC of the other and vice versa. […] Preferably, an FIC of less than 0.5 is obtained for synergism. As used herein, FIC can be determined as follows: [formula]
(§2) Synergism is identified as an FIC of about ≦0.5.

[2] = test system: A. calcoaceticus; conditions: agent alone
Description: as §1, §2

[3] = test system: P. aeruginosa; test: microbe, parasite or virus in culture; conditions: agent alone
Description: as §1, §2

[4] = test system: E. cloacae; conditions: agent alone
Description: as §1, §2

[5] = test system: S. epidermis; conditions: for MIC S. epi 0017: MBI 29 and MBI21 derivatives; for MIC: S. epidermis, Table 1a
Description: as §1
(§3) Briefly, cells were grown overnight at 37° C. in LB-S (Luria broth without any salt supplement) and diluted one in 10,000 in the same medium to give concentrations of about 10^4 to 10^5 CFU/ml. The broth dilutions were set up in a 96 well microtiter plate by putting 200 μl of LB-S containing the initial concentration of antibiotic or compound in column 1 and 100 μl of the same medium in columns 2-12. The compounds were diluted by taking 100 μl of broth from column 1 and mixing it with column 2, resulting in a one in two dilution. This was continued to column 10. Finally, 10 μl of bacteria were pipetted into columns 1-11, and the plates incubated overnight at 37° C. The next day the plates were scored for growth in the wells, and the MIC determined.

[6] = test system: P. aeruginosa; conditions: for MIC H103: MBI 29 and MBI21 derivatives; for MIC: P. aeruginosa (H187), Table 1a
Description: as §1, §3

[7] = test system: S. aureus; test: MIC, broth dilution in LB-S; format: cell-based; conditions: for MIC K147 / MIC SAP: MBI 29 and MBI21 derivatives; for MIC: Table 1a
Description: (§4) The biological activity of the peptides can be determined by standard methods known to those of skill in the art, such as “minimal inhibitory concentration (MIC)” assay described in the present examples, whereby the lowest concentration at which no change in OD is observed for a given period of time is recorded as MIC. Alternatively, “fractional inhibitory concentration (FIC)” is also useful for determination of synergy between the peptides of the invention, or the peptides in combination with known antibiotics. FICs are performed by checkerboard titrations of peptides in one dimension of a microtiter plate, and of antibiotics in the other dimension, for example. The FIC is calculated by looking at the impact of one antibiotic on the MIC of the other and vice versa. […] Preferably, an FIC of less than 0.5 is obtained for synergism. As used herein, FIC can be determined as follows: [formula]
as §3

[8] = test system: E. faecalis; test: MIC, broth dilution in LB-S; format: cell-based; conditions: MBI 29 and MBI21 derivatives
Description: as §4, §3

[9] = test system: B. Subtilis; test: MIC, broth dilution in LB-S; format: cell-based; conditions: MBI 29 and MBI21 derivatives
Description: as §4, §3

[10] = test system: E. coli; test: MIC, broth dilution in LB-S; format: cell-based; conditions: for MIC E. coli 0111:B4: MBI 29 and MBI21 derivatives; for MIC: E. coli (UB1005), Table 1a
Description: as §4, §3

[11] = test system: C610; test: MIC, broth dilution in LB-S; format: cell-based, S. typhimurium; conditions: MBI 29 and MBI21 derivatives
Description: as §4, §3

[12] = test system: Candida albicans; test: MIC, broth dilution in LB-S; format: cell-based; conditions: Candida alibicans (CAN105); Table 1a
Description: as §1, §3

[13] = X. maltophila isolate 35, strain 6
[14] = X. maltophila isolate 36, strain 16
[15] = X. maltophila isolate 38, strain 7901
[16] = X. maltophila isolate 39, strain B3110.1
[17] = X. maltophila isolate 40, strain R1302-1
[18] = X. maltophila isolate 41, strain R4230
[19] = X. maltophila isolate 43, strain TF29-2
[20] = X. maltophila isolate 45, strain W11291
[21] = A. calcoaceticus isolate 1, strain ATCC 23055
[22] = P. aeruginosa isolate 24, strain 34
[23] = P. aeruginosa isolate 27, strain 14644
[24] = P. aeruginosa isolate 28, strain 15036
[25] = P. aeruginosa isolate 30, strain B3999-1
[26] = X. maltophila isolate 44, strain W6896-2
[27] = X. maltophila isolate 37, strain 3095
[28] = X. maltophila isolate 42, strain TF29-1
[29] = E. cloacae isolate 14, strain 938-2
[30] = E. cloacae isolate 18, strain 3077
[31] = P. aeruginosa isolate 23, strain ATCC 27853
[32] = P. aeruginosa isolate 25, strain 923-1
[33] = P. aeruginosa isolate 26, strain 3101
[34] = P. aeruginosa isolate 32, strain W2897-1
[35] = P. aeruginosa isolate 31, strain U7688-1

Compound: CC(C)(O/N=C(\C(=O)N[C@@H]1C(=O)N2C(C(=O)[O-])=C(C[n+]3ccccc3)CS[C@H]12)c1csc(N)n1)C(=O)O [Ceftazidime]
- MIC [1, 13]: 32 µg/mL
- MIC [1, 14]: 16 µg/mL
- MIC [1, 15]: 256 µg/mL
- MIC [1, 16]: 128 µg/mL
- MIC [1, 17]: 32 µg/mL
- MIC [1, 18]: 8 µg/mL
- MIC [1, 19]: 2 µg/mL
- MIC [1, 20]: 128 µg/mL and 256 µg/mL
- MIC [2, 21]: 4 µg/mL
- MIC ([2]; A. calcoaceticus isolate 5, strain 8220): 8 µg/mL
- MIC [3, 22]: 64 µg/mL
- MIC [3, 23]: 256 µg/mL
- MIC [3, 24]: 4 µg/mL
- MIC [3, 25]: 8 µg/mL

Compound: O=C(O)c1cn(C2CC2)c2cc(N3CCNCC3)c(F)cc2c1=O [Ciprofloxacin]
- MIC [1, 26]: 8 µg/mL
- MIC [3, 24]: 32 µg/mL

Compound: C[C@@H](O)[C@H]1C(=O)N2C(C(=O)O)=C(SCCN=CN)C[C@H]12 [Imipenem]
- MIC ([1]; X. maltophila isolate 34, strain ATCC 13637): 512 µg/mL
- MIC [1, 13]: 512 µg/mL
- MIC [1, 14]: 512 µg/mL
- MIC [1, 27]: 512 µg/mL
- MIC [1, 15]: 512 µg/mL
- MIC [1, 16]: 512 µg/mL
- MIC [1, 17]: 512 µg/mL
- MIC [1, 18]: 512 µg/mL
- MIC [1, 28]: 512 µg/mL
- MIC [1, 19]: 512 µg/mL
- MIC [1, 26]: 512 µg/mL
- MIC [1, 20]: 512 µg/mL
- MIC ([2]; A. calcoaceticus isolate 3, strain 27): 512 µg/mL
- MIC ([2]; A. calcoaceticus isolate 4, strain 28): 8 µg/mL
- MIC ([2]; A. calcoaceticus isolate 7, strain 8222): 2 µg/mL
- MIC ([2]; A. calcoaceticus isolate 11, strain 8226): 2 µg/mL
- MIC ([4]; E. cloacae isolate 12, strain ATCC 13047): 2 µg/mL
- MIC [4, 29]: 2 µg/mL
- MIC [4, 30]: 2 µg/mL
- MIC ([4]; E. cloacae isolate 19, strain 3356): 2 µg/mL
- MIC ([4]; E. cloacae isolate 20, strain 14269): 2 µg/mL
- MIC [3, 31]: 4 µg/mL
- MIC [3, 32]: 2 µg/mL
- MIC [3, 33]: 4 µg/mL
- MIC [3, 23]: 8 µg/mL
- MIC [3, 24]: 8 µg/mL
- MIC ([3]; P. aeruginosa isolate 29, strain 15545): 128 µg/mL
- MIC [3, 25]: 128 µg/mL
- MIC [3, 34]: 128 µg/mL

Compound: CCN1CCN(C(=O)N[C@@H](C(=O)N[C@@H]2C(=O)N3[C@@H]2SC(C)(C)[C@@H]3C(=O)O)c2ccccc2)C(=O)C1=O [Piperacillin]
- MIC [1, 27]: 1024 µg/mL
- MIC [1, 15]: 1024 µg/mL
- MIC [1, 16]: 1024 µg/mL
- MIC [1, 17]: 1024 µg/mL
- MIC [1, 20]: 1024 µg/mL
- MIC ([2]; A. calcoaceticus isolate 9, strain 8224): 128 µg/mL
- MIC [4, 29]: 4 µg/mL
- MIC [4, 30]: 4 µg/mL
- MIC ([4]; E. cloacae isolate 21, strain 14661): 8 µg/mL
- MIC [3, 31]: 128 µg/mL
- MIC [3, 32]: 32 µg/mL
- MIC [3, 33]: 128 µg/mL
- MIC [3, 23]: 1024 µg/mL
- MIC [3, 25]: 256 µg/mL
- MIC [3, 35]: 256 µg/mL
- MIC [3, 34]: 32 µg/mL
- MIC ([3]; Pseudomonas aeruginosa, P. aeruginosa isolate 23, strain ATCC 27853): 256 µg/mL

Compound: NC[C@H]1O[C@H](O[C@H]2[C@H](O)[C@@H](O[C@H]3O[C@H](CO)[C@@H](O)[C@H](N)[C@H]3O)[C@H](N)C[C@@H]2N)[C@H](N)C[C@@H]1O [Tobramycin]
- MIC [1, 14]: 128 µg/mL
- MIC [1, 16]: 16 µg/mL
- MIC [1, 28]: 1 µg/mL
- MIC [1, 19]: 1 µg/mL
- MIC [1, 26]: 8 µg/mL
- MIC [2, 21]: 2 µg/mL
- MIC [4, 29]: 1 µg/mL
- MIC ([4]; E. cloacae isolate 15, strain B5546): 1 µg/mL
- MIC [3, 22]: 128 µg/mL
- MIC [3, 23]: 1 µg/mL
- MIC [3, 25]: 1 µg/mL
- MIC [3, 35]: 2 µg/mL
- MIC ([3]; P. aeruginosa isolate 33, strain W5483-2): 2 µg/mL

Compound: KKSFFKKLTSVASSVLS [MBI21A14]
- MIC S. epi 0017 [5]: >128 µg/mL
- MIC H103 [6]: >128 µg/mL
- MIC K147 [7]: >128 µg/mL
- MIC SAP [7]: >128 µg/mL
- MIC E. faecalis [8]: >128 µg/mL
- MIC B. Subtilis [9]: >128 µg/mL
- MIC E. coli 0111:B4 [10]: >128 µg/mL
- MIC C610 [11]: 128 µg/mL

Compound: KKWWRRVLSGLKTAGPAIQSVLNK [MBI21A1]
- MIC S. epi 0017 [5]: 128 µg/mL
- MIC H103 [6]: 64 µg/mL
- MIC K147 [7]: >128 µg/mL
- MIC SAP [7]: >128 µg/mL
- MIC E. faecalis [8]: >128 µg/mL
- MIC B. Subtilis [9]: >128 µg/mL
- MIC E. coli 0111:B4 [10]: 16 µg/mL
- MIC C610 [11]: 16 µg/mL

Compound: KWKLFKKIGIGAVLKVLTTGLPALIS [CEME, reference compound]
- MIC [5]: 16 µg/mL
- MIC [6]: 8 µg/mL
- MIC ([7]; S. aureus (K 147)): 32 µg/mL
- MIC ([7]; S. aureus (SAP0017)): 24 µg/mL
- MIC [10]: 5 µg/mL
- MIC [12]: 64 µg/mL

Compound: KWKLFKKKGTGAVLTVLTTGLPALIS [MBI29A3]
- MIC S. epi 0017 [5]: 16 µg/mL
- MIC H103 [6]: 16 µg/mL
- MIC K147 [7]: 32 µg/mL
- MIC SAP [7]: 32 µg/mL
- MIC E. faecalis [8]: >128 µg/mL
- MIC B. Subtilis [9]: 16 µg/mL
- MIC E. coli 0111:B4 [10]: 8 µg/mL
- MIC C610 [11]: 8 µg/mL

Compound: KWKSFIKKLTSVLKKVVTTALPALIS [MBI29A1]
- MIC S. epi 0017 [5]: 16 µg/mL
- MIC H103 [6]: 16 µg/mL
- MIC K147 [7]: 16 µg/mL
- MIC SAP [7]: 16 µg/mL
- MIC E. faecalis [8]: 64 µg/mL
- MIC B. Subtilis [9]: 16 µg/mL
- MIC E. coli 0111:B4 [10]: 4 µg/mL
- MIC C610 [11]: 8 µg/mL

Compound: MA-20: 20 carboxy terminal amino acids of melittin (MA) [reference compound]
- MIC [5]: ≧64
- MIC [6]: ≧64
- MIC ([7]; S. aureus (K 147)): ≧64
- MIC ([7]; S. aureus (SAP0017)): ≧64
- MIC [10]: ≧64
- MIC [12]: ≧64
